Tests used:
Format in all cases: cell-based, human
Caco-2 cells [1] = assay: Transwell cell invasion assay; conditions: IC50 concentration; for inhibition in Caco-2 cell invasion compared to control: 24 h; for percentage inhibition of Caco-2 cell invasion: 48 h
Procedure: Caco-2 cell invasion was assessed using a QCM™ 24-well Colorimetric Cell Invasion Assay kit (Chemicon International, Temecula, CA, USA (Cat # ECM551)), according to the manufacturer’s instructions. Cells were starved of serum for 24 h. […] Inserts were further added into a 24-well plate containing 500 µL of 10% FBS-containing DMEM per well. After incubation for 24 or 48 h at 37 °C, remaining media was removed from the invasion chamber, and cells that had migrated to the other side of the membrane were stained with “Cell Stain” solution for 20 min at room temperature. Non-invaded cells were carefully removed from the upper side of the chamber with the help of cotton-tipped swabs. The stain of invaded cells was then extracted by 200 µL of extraction buffer in a clean well for 15 min at room temperature. Finally, 100 µL extracted stained solution was transferred into a 96-well plate and the optical density was measured at 490 nm with BioTek 800 TS microplate reader.

Caco-2 cells [2] = assay: Annexin V-FITC/PI apoptosis assay (flow cytometry); conditions: Caco-2, IC50 concentration
Procedure: The ability of synthetic retinoids to induce apoptosis in one of the sensitive cancer cell lines (namely, Caco-2 cells) was detected by Annexin V-FITC and PI according to the protocol of the detection kit (Beckman Coulter, Brea, CA, USA). […] Cells were collected, washed with phosphate-buffered saline (PBS) (Lonza), and resuspended in 1 mL of binding buffer. 100 µL cell suspension was incubated with 1 µL FITC-labeled Annexin V and 5 µL PI for 15 min at 4 °C in the dark. Finally, 400 µL ice-cold binding buffer was added, and the apoptotic cells in each sample were analyzed by Beckman Coulter Epics XL flow cytometer. Apoptotic index (AI) was calculated as the number of apoptotic cell deaths expressed as a percentage from the total gated cells.

RAR-α = assay: Gene expression analysis (qPCR) in Caco-2 cells; conditions: Caco-2, IC50, 24 h, relative to 0.1% DMSO control, normalized to GAPDH
Procedure: (§1) Sensitive cancer cell line (Caco-2) was used for gene expression analysis of different genes controlling differentiation, apoptosis, tumor resistance, aggressiveness, and metastasis. […] After incubation, cells were harvested, and the total RNA was purified using Favor-Prep^TM Blood/Cultured cell total RNA purification mini kit (Favorgen Biotech Corp., Ping-Tung, Taiwan). RNA was reverse transcribed into the first-strand cDNA using Revert Aid First Strand cDNA Synthesis Kit (Thermo Scientific, Waltham, MA, USA). HERA^PLUS SYBR® Green qPCR Kit (Willowfort, Nottingham, UK) was utilized in quantitative polymerase chain reactions (qPCR). Gene expression was analyzed and quantified using the 2ˆ^−ΔΔCT method.

RAI2 = assay: Gene expression analysis (qPCR) in Caco-2 cells; conditions: Caco-2, IC50, 24 h, relative to 0.1% DMSO control
Procedure: as §1

Bax = assay: Gene expression analysis (qPCR) in Caco-2 cells; conditions: Caco-2, IC50, 24 h, relative to 0.1% DMSO control
Procedure: as §1

RAR-β = assay: Gene expression analysis (qPCR) in Caco-2 cells; conditions: Caco-2, IC50, 24 h, relative to 0.1% DMSO control, normalized to GAPDH
Procedure: as §1

RAR-γ = assay: Gene expression analysis (qPCR) in Caco-2 cells; conditions: Caco-2, IC50, 24 h, relative to 0.1% DMSO control, normalized to GAPDH
Procedure: as §1

Caspase-3 (Cas-3) = assay: Gene expression analysis (qPCR) in Caco-2 cells; conditions: Caco-2, IC50, 24 h, relative to 0.1% DMSO control
Procedure: as §1

WRN = assay: Gene expression analysis (qPCR) in Caco-2 cells; conditions: Caco-2, IC50, 24 h, relative to 0.1% DMSO control
Procedure: as §1

E-cadherin = assay: Gene expression analysis (qPCR) in Caco-2 cells; conditions: Caco-2, IC50, 24 h, relative to 0.1% DMSO control
Procedure: as §1

cytochrome-C (Cyt-C) = assay: Gene expression analysis (qPCR) in Caco-2 cells; conditions: Caco-2, IC50, 24 h, relative to 0.1% DMSO control
Procedure: as §1

p53 = assay: Gene expression analysis (qPCR) in Caco-2 cells; conditions: Caco-2, IC50, 24 h, relative to 0.1% DMSO control
Procedure: as §1

Caspase-8 (Cas-8) = assay: Gene expression analysis (qPCR) in Caco-2 cells; conditions: Caco-2, IC50, 24 h, relative to 0.1% DMSO control
Procedure: as §1

Cytochrome-C = assay: Immunocytochemistry of cytosolic Cyt-C in Caco-2 cells; conditions: Caco-2, IC50, 24 h, compared to 0.1% DMSO control
Procedure: Caco-2 cells were seeded onto coverslips at a density of 1 × 10^6 cells using 0.1 mg/mL Poly-L-Lysine (Sigma-Aldrich, St. Louis, MO, USA) for immunocytochemistry (ICC) analysis. After treatment with IC50 of retinoids, cells were fixed in formalin neutral buffer (FNB) solution. The fixed cells were permeabilized with 0.1% Triton-x 100 and then blocked in 1% bovine serum albumin (BSA, prepared in PBS containing 0.1% Tween 20) for 30 min. Then, cells were incubated with Alexa Fluor® 488-conjugated anti-cytochrome C antibody overnight. After incubation, nuclei of cells were stained with Hoechst 33,258 (Sigma-Aldrich, St. Louis, MO, USA, 1:500). The coverslips were mounted in anti-fading medium (0.1% p-phenylenediamine, dissolved in 90% glycerin/PBS) and cytochrome C protein expression was detected using Carl Zeiss LSM 710 confocal microscope.

HT-29 = assay: MTT antiproliferation assay; conditions: for SI (selectivity index): HT-29, SI = IC50 (WI-38)/IC50 (cancer cell line); for IC50: Homo sapiens, HT-29, MTT, 24 h, mean ± SEM
Procedure: The antiproliferation and cytotoxicity were assessed using 3-(4,5-dimethylthiazol-2-yl)-2,5-diphenyltetrazolium bromide (MTT, Serva) colorimetric assay. To investigate the antiproliferation, all cell lines were seeded at a density of 20,000 cells per well in 96-well plates and allowed to adhere overnight. […] These concentrations were prepared by diluting the stock solutions with serum-free culture media. The negative control cells were those treated with 0.1% DMSO solvent alone. The treated cells were handled in reduced light and maintained under standard culture growth conditions for 24 h. After the incubation period, MTT powder was prepared as a stock solution (5 mg/mL) and 20 μL of the MTT working reagent (final concentration 0.5 mg/mL) was added to each well. This was followed by incubation with MTT reagent for 4 h in a humidified atmosphere (37 °C, 5% CO2) with subsequent addition of 150 μL of DMSO solubilizing solvent and incubation for 20 min. The absorbance of solubilized violet formazan crystals was measured at 540 nm with Biotek 800 TS microplate reader. IC50 was calculated as the concentration of retinoid that produced 50% cell growth inhibition. For cytotoxicity assessment, WI-38 normal human fibroblast cells were used for the calculation of SI which is the ratio of IC50 retinoid (WI-38)/IC50 retinoid (cancer cell line).

CC1=C(/C=C/C(C)=C/C=C/C(C)=C/C(=O)O)C(C)(C)CCC1 [ATRA, All-trans retinoic acid, reference compound]
inhibition in Caco-2 cell invasion compared to control (Caco-2 cells [1]): 3.8%
percentage inhibition of Caco-2 cell invasion (Caco-2 cells [1]): 8.6%
% early apoptotic cells (C+−) (Caco-2 cells [2]; 12 h treatment): 11.99 ± 1.9%
% late apoptotic cells (C−+) (Caco-2 cells [2]; 12 h treatment): 0.00%
% necrotic cells (C++) (Caco-2 cells [2]; 12 h treatment): 0.01%
% viable cells (C−−) (Caco-2 cells [2]; 12 h treatment): 87.99 ± 15.0%
% early apoptotic cells (C+−) (Caco-2 cells [2]; 24 h treatment): 47.4 ± 2.5 %
% late apoptotic cells (C−+) (Caco-2 cells [2]; 24 h treatment): 0.0%
% necrotic cells (C++) (Caco-2 cells [2]; 24 h treatment): 0.28± 0.17%
% viable cells (C−−) (Caco-2 cells [2]; 24 h treatment): 52.4 ± 11.5 %

CC1(C)CCC(C)(C)c2cc(C#Cc3cccc(C(=O)O)c3)ccc21 [EC19, 3-(5,5,8,8-tetramethyl-5,6,7,8-tetrahydronaphthalen-2-ylethynyl) benzoic acid]
RAR-α gene expression, fold increase (RAR-α): 2.6 fold
RAI2 gene expression, fold change (RAI2): 4.4 fold
Bax gene expression, fold change (Bax): 1.9 fold
RAR-β gene expression, fold increase (RAR-β): 131 fold
RAR-γ gene expression, fold increase (RAR-γ): without affecting
Cas-3 gene expression, fold change (Caspase-3 (Cas-3)): 8.6 fold
WRN gene expression, fold change (WRN): ~ 40 fold
E-cadherin gene expression, fold change (E-cadherin): 54 fold
Cyt-C gene expression, fold change (cytochrome-C (Cyt-C)): 3.6 fold
p53 gene expression, fold change (p53): 1.2 fold
Cas-8 gene expression, fold change (Caspase-8 (Cas-8)): 7.1 fold
inhibition in Caco-2 cell invasion compared to control (Caco-2 cells [1]): 7.2%
percentage inhibition of Caco-2 cell invasion (Caco-2 cells [1]): 17.2%
cytosolic Cyt-C protein released (anti-Cyt-C fluorescence intensity) (Cytochrome-C): significant increase
SI (selectivity index) (HT-29): <1
IC50 (HT-29): > 100 µM
% Apoptotic index (AI) (Caco-2 cells [2]; 12 h treatment): 6.3%
% early apoptotic cells (C+−) (Caco-2 cells [2]; 12 h treatment): 6.30 ± 1.1%
% late apoptotic cells (C−+) (Caco-2 cells [2]; 12 h treatment): 0.01%
% necrotic cells (C++) (Caco-2 cells [2]; 12 h treatment): 0.4 ± 0.1%
% viable cells (C−−) (Caco-2 cells [2]; 12 h treatment): 93.65 ± 14.0%
% early apoptotic cells (C+−) (Caco-2 cells [2]; 24 h treatment): 75.3 ± 13.8 %
% late apoptotic cells (C−+) (Caco-2 cells [2]; 24 h treatment): 0.0%
% necrotic cells (C++) (Caco-2 cells [2]; 24 h treatment): 0.18 ± 0.05%
% viable cells (C−−) (Caco-2 cells [2]; 24 h treatment): 24.5 ± 11.8 %

CC1(C)CCC(C)(C)c2cc(C#Cc3ccc(C(=O)O)cc3)ccc21 [EC23, 4-(5,5,8,8-tetramethyl-5,6,7,8-tetrahydronaphthalen-2-ylethynyl) benzoic acid]
RAR-α gene expression, fold increase (RAR-α): no effect
RAI2 gene expression, fold change (RAI2): 1.6 fold
Bax gene expression, fold change (Bax): not able to induce any significant change
RAR-β gene expression, fold increase (RAR-β): no effect
RAR-γ gene expression, fold increase (RAR-γ): 2.3 fold
Cas-3 gene expression, fold change (Caspase-3 (Cas-3)): did not induce significant expression
WRN gene expression, fold change (WRN): ~ 40 fold
E-cadherin gene expression, fold change (E-cadherin): 16.3 fold
Cyt-C gene expression, fold change (cytochrome-C (Cyt-C)): 2.8 fold
p53 gene expression, fold change (p53): did not induce p53 upregulation
Cas-8 gene expression, fold change (Caspase-8 (Cas-8)): did not induce significant expression
inhibition in Caco-2 cell invasion compared to control (Caco-2 cells [1]): 4.8%
percentage inhibition of Caco-2 cell invasion (Caco-2 cells [1]): 15.8%
cytosolic Cyt-C protein released (anti-Cyt-C fluorescence intensity) (Cytochrome-C): second rank
SI (selectivity index) (HT-29): <1
IC50 (HT-29): > 100 µM
% Apoptotic index (AI) (Caco-2 cells [2]; 12 h treatment): 8.3%
% early apoptotic cells (C+−) (Caco-2 cells [2]; 12 h treatment): 8.34 ± 1.1%
% late apoptotic cells (C−+) (Caco-2 cells [2]; 12 h treatment): 0.01%
% necrotic cells (C++) (Caco-2 cells [2]; 12 h treatment): 0.05%
% viable cells (C−−) (Caco-2 cells [2]; 12 h treatment): 91.61 ± 13.7%
% early apoptotic cells (C+−) (Caco-2 cells [2]; 24 h treatment): 65.4 ± 18.4 %
% late apoptotic cells (C−+) (Caco-2 cells [2]; 24 h treatment): 0.0%
% necrotic cells (C++) (Caco-2 cells [2]; 24 h treatment): 0.16 ± 0.14%
% viable cells (C−−) (Caco-2 cells [2]; 24 h treatment): 34.4 ± 18.3 %
